Measured values as given in ChEMBL document CHEMBL1201862, “PubChem BioAssay data set” (2004).
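Values below derive from 48-hour exposures of cells grown in 96-well plates, with endpoints linearly interpolated between the two concentrations bracketing the appropriate inhibition level. GI50: concentration for 50% inhibition of growth.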 Calls of active or inactive are those of the source. Cut-off read from the data, not from the text of the source: active = GI50 up to about 1.1 µM and inactive = higher.

Key:
Assay in all cases: DTP human tumour cell line panel, 48 h
NCI-H23 = tested on: NCI-H23
SK-MEL-5 = tested on: SK-MEL-5
SF-268 = tested on: SF-268
UACC-62 = tested on: UACC-62
OVCAR-5 = tested on: OVCAR-5
BT-549 = tested on: BT-549
PC-3 = tested on: PC-3
SNB-19 = tested on: SNB-19
MDA-MB-435 = tested on: MDA-MB-435
SW-620 = tested on: SW-620
OVCAR-8 = tested on: OVCAR-8
SK-OV-3 = tested on: SK-OV-3
MDA-N = tested on: MDA-N
UACC-257 = tested on: UACC-257
NCI-H522 = tested on: NCI-H522
SK-MEL-2 = tested on: SK-MEL-2
SN12C = tested on: SN12C
DU-145 = tested on: DU-145
IGROV-1 = tested on: IGROV-1
CCRF-CEM = tested on: CCRF-CEM
EKVX = tested on: EKVX
HCT-116 = tested on: HCT-116
SNB-75 = tested on: SNB-75
M14 = tested on: M14
RXF 393 = tested on: RXF 393
NCI-H226 = tested on: NCI-H226
HOP-62 = tested on: HOP-62
A549 = tested on: A549
MOLT-4 = tested on: MOLT-4
TK-10 = tested on: TK-10
A498 = tested on: A498
MDA-MB-231 = tested on: MDA-MB-231
SF-295 = tested on: SF-295
OVCAR-3 = tested on: OVCAR-3
RPMI-8226 = tested on: RPMI-8226
NCI-H460 = tested on: NCI-H460
SF-539 = tested on: SF-539
MCF7 = tested on: MCF7
LOX IMVI = tested on: LOX IMVI
T47D = tested on: T47D
OVCAR-4 = tested on: OVCAR-4
CAKI-1 = tested on: CAKI-1
SK-MEL-28 = tested on: SK-MEL-28
HOP-92 = tested on: HOP-92
K562 = tested on: K562
NCI/ADR-RES = tested on: NCI/ADR-RES
786-0 = tested on: 786-0
UO-31 = tested on: UO-31
HCT-15 = tested on: HCT-15
HL-60 = tested on: HL-60
Malme-3M = tested on: Malme-3M
HT-29 = tested on: HT-29
HCC 2998 = tested on: HCC 2998
COLO 205 = tested on: COLO 205
U-251 = tested on: U-251
ACHN = tested on: ACHN
Hs-578T = tested on: Hs-578T
KM12 = tested on: KM12

For `O=c1ccc(=O)n(-c2ccccc2)[nH]1`, the GI50 (NCI-H23) was > 100 µM (inactive), the GI50 (SK-MEL-5) was > 100 µM (inactive) and the GI50 (SF-268) was > 100 µM (inactive). The GI50 (UACC-62) was > 100 µM (inactive), the GI50 (OVCAR-5) was > 100 µM (inactive) and the GI50 (BT-549) was > 100 µM (inactive). The GI50 (PC-3) was > 100 µM (inactive), the GI50 (SNB-19) was > 100 µM (inactive) and the GI50 (MDA-MB-435) was > 100 µM (inactive). The GI50 (SW-620) was > 100 µM (inactive), the GI50 (OVCAR-8) was > 100 µM (inactive) and the GI50 (SK-OV-3) was > 100 µM (inactive). The GI50 (MDA-N) was > 100 µM (inactive), the GI50 (UACC-257) was > 100 µM (inactive) and the GI50 (NCI-H522) was > 100 µM (inactive). The GI50 (SK-MEL-2) was > 100 µM (inactive), the GI50 (SN12C) was > 100 µM (inactive) and the GI50 (DU-145) was > 100 µM (inactive). The GI50 (IGROV-1) was > 100 µM (inactive), the GI50 (CCRF-CEM) was > 100 µM (inactive) and the GI50 (EKVX) was > 100 µM (inactive). For the same molecule, the GI50 (HCT-116) was > 100 µM (inactive), the GI50 (SNB-75) was > 100 µM (inactive) and the GI50 (M14) was > 100 µM (inactive). For the same molecule, the GI50 (RXF 393) was > 100 µM (inactive), the GI50 (NCI-H226) was > 100 µM (inactive) and the GI50 (HOP-62) was > 100 µM (inactive). The GI50 (A549) was > 100 µM (inactive), the GI50 (MOLT-4) was > 100 µM (inactive) and the GI50 (TK-10) was > 100 µM (inactive). The GI50 (A498) was > 100 µM (inactive), the GI50 (MDA-MB-231) was > 100 µM (inactive) and the GI50 (SF-295) was > 100 µM (inactive). For the same molecule, the GI50 (OVCAR-3) was > 100 µM (inactive), the GI50 (RPMI-8226) was > 100 µM (inactive) and the GI50 (NCI-H460) was > 100 µM (inactive). The GI50 (SF-539) was > 100 µM (inactive), the GI50 (MCF7) was > 100 µM (inactive) and the GI50 (LOX IMVI) was > 100 µM (inactive). The GI50 (T47D) was > 100 µM (inactive), the GI50 (OVCAR-4) was > 100 µM (inactive) and the GI50 (CAKI-1) was > 100 µM (inactive). The GI50 (SK-MEL-28) was > 100 µM (inactive), the GI50 (HOP-92) was > 100 µM (inactive) and the GI50 (K562) was > 100 µM (inactive). For the same molecule, the GI50 (NCI/ADR-RES) was > 100 µM (inactive), the GI50 (786-0) was > 100 µM (inactive) and the GI50 (UO-31) was > 100 µM (inactive). The GI50 (HCT-15) was over 100 µM, the GI50 (HL-60) was > 100 µM (inactive) and the GI50 (Malme-3M) was > 100 µM (inactive). For the same molecule, the GI50 (HT-29) was > 100 µM (inactive), the GI50 (HCC 2998) was > 100 µM (inactive) and the GI50 (COLO 205) was > 100 µM (inactive). For the same molecule, the GI50 (U-251) was > 100 µM (inactive), the GI50 (ACHN) was > 100 µM (inactive) and the GI50 (Hs-578T) was > 100 µM (inactive). For the same molecule, the GI50 (KM12) was > 100 µM (inactive).
